According to publication PMC8878928 (International Journal of Molecular Sciences, 2022):

Key:
SARS-CoV-2 3CL^Pro = SARS-CoV-2 3CL^Pro (Severe acute respiratory syndrome coronavirus 2, UniProt P0DTD1); test: FRET-based 3CLPro enzymatic inhibition assay (SARS-CoV-2); assay type: biochemical; settings: 0.2 μM enzyme, mean ± SE, n = 3
SARS-CoV 3CL^Pro = SARS-CoV 3CL^Pro (Severe acute respiratory syndrome coronavirus, UniProt P0C6X7); test: biochemical
SARS-CoV-2 [1] = test system: SARS-CoV-2; parameters: method as in PMID 32198291; settings: Calu-3 cell line; read-out: EC50 (viral RNA copies); cited from earlier work
3CL^Pro = settings: read-out: IC50 against 3CL^Pro; lead compound; cited from earlier work
SARS-CoV-2 [2] = settings: co-administration of PF07321332 and Ritonavir, oral, phase II/III trials; cited from earlier work
SARS-CoV-2 [3] = test: SARS-CoV-2 infection assay in Vero E6 cells, viral RNA by qPCR; assay type: cell-based; settings: final concentration 10 μM, initial screen

For `COc1ccc(/C=C/C(=O)N[C@H](C(=O)N[C@@H](CC(C)C)C(=O)N[C@H](C=O)C[C@@H]2CCCNC2=O)C(C)C)cc1` [TPM10], the IC50 (SARS-CoV-2 3CL^Pro) was 80 ± 2 nM and the IC50 (SARS-CoV 3CL^Pro) was 231 ± 4 nM.
For `CC(C)(C)OC(=O)Nc1cccn([C@@H](CC2CC2)C(=O)N[C@@H](C[C@@H]2CCNC2=O)C(=O)C(=O)NCc2ccccc2)c1=O` [13b], the EC50 (SARS-CoV-2 [1]) is listed as 4000 to 5000 nM and the IC50 (3CL^Pro) is listed as 670 ± 180 nM.
Compound `CC(C)C[C@H](NC(=O)[C@@H](NC(=O)c1ccco1)C(C)C)C(=O)N[C@H](C=O)C[C@@H]1CCCNC1=O` [TPM5] has an IC50 (SARS-CoV-2 3CL^Pro) of 59 ± 2 nM and an IC50 (SARS-CoV 3CL^Pro) of 134 ± 1 nM.
For `CC(C)(C)[C@H](NC(=O)C(F)(F)F)C(=O)N1C[C@H]2[C@@H]([C@H]1C(=O)N[C@H](C#N)C[C@@H]1CCNC1=O)C2(C)C` [PF-07321332], the “Reduction of overall hospitalizations” value (SARS-CoV-2 [2]) is given as 89%.
With `CC(C)C[C@H](NC(=O)[C@H](Cc1ccccc1)NC(=O)/C=C/c1ccccc1)C(=O)N[C@H](C=O)C[C@@H]1CCCNC1=O` [TPM16] the “Reduction of RNA loads of SARS-CoV-2 (relative level to DMSO control)” value (SARS-CoV-2 [3]) was 10^3, the IC50 (SARS-CoV-2 3CL^Pro) was 166 ± 2 nM and the IC50 (SARS-CoV 3CL^Pro) was 232 ± 1 nM.
With `CC(C)C[C@H](NC(=O)[C@@H](NC(=O)C1CCCCC1)C(C)C)C(=O)N[C@H](C=O)C[C@@H]1CCCNC1=O` [TPM1] the IC50 (SARS-CoV-2 3CL^Pro) was 241 ± 0.5 nM and the IC50 (SARS-CoV 3CL^Pro) was 479 ± 29 nM.
For `CC[C@H](C)[C@H](NC(=O)/C=C/c1ccccc1)C(=O)N[C@H](C=O)C[C@@H]1CCCNC1=O` [TPM19], the “Reduction of RNA loads of SARS-CoV-2 (relative level to DMSO control)” value (SARS-CoV-2 [3]) was 10^3, the IC50 (SARS-CoV-2 3CL^Pro) was 1060 ± 31 nM and the IC50 (SARS-CoV 3CL^Pro) was 1220 ± 312 nM.
